This test has as its system fungi. Kind of test: Fungal growth on treated slices of French bread. Conditions: slice brushed on all sides with 1000 ppm Ag; 3 days in warm and humid atmosphere, 20-35° C. The method, then:
Slices of French bread from a local baker were used as substrates for fungal growth. • 1. Bread slice was brushed on all sides with the sol containing 1000 ppm Ag • 2. […] Bread slice was untreated.
The bread slices on a dinner plate were put in a plastic bag, which in turn was placed in a glassed-in porch where the temperature varied between 20 and 35° C. over the day.

Turning to silver nitrate [AgNO3 solution], the “resistance of bread slice to fungi attack” value was “affords some protection”.

These data come from patent US9108854B2, “Biocidal colloidal dispersions of silica particles with silver ions adsorbed thereon” (PREBONA AB, priority 2009, dated 2015).
